In patent US5840684A, “Glycopeptide antibiotic derivatives” (Eli Lilly and Company, priority 1995, dated 1998):
Values after ≈ are worked out from the molar mass of the structure shown.

Experiments:
[1] = system: Staphylococcus aureus 489; experiment: broth micro-dilution MIC; format: cell-based
Experimental: (§1) The MIC's were determined using a standard broth micro-dilution assay.

[2] = system: Staphylococcus aureus 446; experiment: broth micro-dilution MIC; format: cell-based
Experimental: as §1

[3] = system: Staphylococcus aureus SA1199; experiment: broth micro-dilution MIC; format: cell-based
Experimental: as §1

[4] = system: Staphylococcus aureus SA1199A; experiment: broth micro-dilution MIC; format: cell-based
Experimental: as §1

[5] = system: Entercoccus faecium 180-1; experiment: broth micro-dilution MIC; format: cell-based
Experimental: as §1

[6] = system: Staphylococcus aureus X778; experiment: broth micro-dilution MIC; format: cell-based
Experimental: as §1

[7] = system: Staphylococcus aureus X400; experiment: broth micro-dilution MIC; format: cell-based
Experimental: as §1

[8] = system: Staphylococcus aureus 447; experiment: broth micro-dilution MIC; format: cell-based
Experimental: as §1

[9] = system: Staphylococcus aureus 491; experiment: broth micro-dilution MIC; format: cell-based
Experimental: as §1

[10] = system: Streptococcus pyogenes C203; experiment: broth micro-dilution MIC; format: cell-based
Experimental: as §1

Entercoccus faecium 276 = experiment: broth micro-dilution MIC; format: cell-based
Experimental: as §1

[11] = system: Staphylococcus aureus S13E; format: cell-based
Experimental: as §1

[12] = system: Staphylococcus aureus SA1199B; format: cell-based
Experimental: as §1

[13] = system: vancomycin-susceptible enterococci; experiment: broth micro-dilution, mean geometric MIC; format: cell-based, Enterococcus faecium and Enterococcus faecalis; settings: enterococci, 24-hour incubation
Entercoccus faecium 180 = experiment: broth micro-dilution MIC; format: cell-based; settings: Entercoccus faecium 180
Experimental: (§2) The formula I compounds have in vitro and in vivo activity against Gram-positive pathogenic bacteria. The MIC's were determined using a standard broth micro-dilution assay.

[14] = system: Haemophilus influenzae RD; experiment: broth micro-dilution MIC; format: cell-based; settings: Haemophilus influenzae RD
Experimental: as §2

[15] = system: Staphylococcus haemolyticus 415; experiment: broth micro-dilution MIC; format: cell-based
Experimental: as §2

[16] = system: Staphylococcus epidermidis 270; experiment: broth micro-dilution MIC; format: cell-based
Experimental: as §2

[17] = system: Staphylococcus haemolyticus 105; experiment: broth micro-dilution MIC; format: cell-based
Experimental: as §2

[18] = system: Streptococcus pneumoniae P1; experiment: broth micro-dilution MIC; format: cell-based
Experimental: as §2

Escherichia coli EC14 = experiment: broth micro-dilution MIC; format: cell-based
Experimental: as §2

[19] = system: Enterococcus gallinarum 245; experiment: broth micro-dilution MIC; format: cell-based; settings: Enterococcus gallinarum 245
Experimental: as §2

Entercoccus faecium 2041 = experiment: broth micro-dilution MIC; format: cell-based; settings: Entercoccus faecium 2041
Experimental: as §2

[20] = system: vancomycin-resistant enterococci; experiment: broth micro-dilution, mean geometric MIC; format: cell-based, Enterococcus faecium and Enterococcus faecalis; settings: enterococci, 24-hour incubation

Structure (SMILES) | MIC [1] [µg/mL] | MIC [2] [µg/mL] | MIC [3] [µg/mL] | MIC [4] [µg/mL] | MIC [5] [µg/mL] | MIC [6] [µg/mL] | MIC [7] [µg/mL] | MIC [8] [µg/mL] | MIC [9] [µg/mL] | MIC [10] [µg/mL] | MIC (Entercoccus faecium 276) [µg/mL] | MIC [11] [µg/mL] | MIC [12] [µg/mL] | mean geometric MIC, Vancomycin Sensitive Strains [13] [µg/mL] | MIC (Entercoccus faecium 180) [µg/mL] | MIC [14] [µg/mL] | MIC [15] [µg/mL] | MIC [16] [µg/mL] | MIC [17] [µg/mL] | MIC [18] [µg/mL] | also measured
CC(C)CC(C(=O)NC1C(=O)NC(CC(N)=O)C(=O)NC2C(=O)NC3C(=O)NC(C(=O)NC(C(=O)O)c4cc(O)cc(O)c4-c4cc3ccc4O)C(OC3CC(C)(N)C(O)C(C)O3)c3ccc(c(Cl)c3)Oc3cc2cc(c3OC2OC(CO)C(O)C(O)C2OC2CC(C)(NCc3ccc(Cc4ccccc4)cc3)C(O)C(C)O2)Oc2ccc(cc2Cl)C1O)N(C)Cc1ccc(Cc2ccccc2)cc1 (stereo not drawn) [Compound 270] | 0.25 (≈ 0.128 µM) | 1 (≈ 0.512 µM) | 1 (≈ 0.512 µM) | ≤ 0.06 | ≤ 0.06 | 0.5 (≈ 0.256 µM) | 1 (≈ 0.512 µM) | 0.5 (≈ 0.256 µM) | 0.25 (≈ 0.128 µM) | ≤ 0.06 | 1 (≈ 0.512 µM) | 2 (≈ 1.02 µM) | 2 (≈ 1.02 µM) | 0.66 | 0.25 (≈ 0.128 µM) | > 64 | 2 (≈ 1.02 µM) | 1 (≈ 0.512 µM) | 4 (≈ 2.05 µM) | ≤ 0.06 | MIC (Escherichia coli EC14): > 64 µg/mL; MIC [19]: 2 µg/mL (≈ 1.02 µM); MIC (Entercoccus faecium 2041): 0.5 µg/mL (≈ 0.256 µM); mean geometric MIC, Vancomycin Resistant Strains [20]: 2.8 µg/mL
CC(C)CC(C(=O)NC1C(=O)NC(CC(N)=O)C(=O)NC2C(=O)NC3C(=O)NC(C(=O)NC(C(=O)O)c4cc(O)cc(O)c4-c4cc3ccc4O)C(OC3CC(C)(N)C(O)C(C)O3)c3ccc(c(Cl)c3)Oc3cc2cc(c3OC2OC(CO)C(O)C(O)C2OC2CC(C)(NCc3ccncc3)C(O)C(C)O2)Oc2ccc(cc2Cl)C1O)N(C)Cc1ccncc1 (stereo not drawn) [Compound 274] | 2 (≈ 1.13 µM) | 8 (≈ 4.51 µM) | 2 (≈ 1.13 µM) | 1 (≈ 0.563 µM) | 0.5 (≈ 0.282 µM) | 4 (≈ 2.25 µM) | 8 (≈ 4.51 µM) | 16 (≈ 9.02 µM) | 4 (≈ 2.25 µM) | 0.125 (≈ 0.0704 µM) | 1 (≈ 0.563 µM) | 4 (≈ 2.25 µM) | 2 (≈ 1.13 µM) | 9.2 | > 64 | > 64 | > 64 | 16 (≈ 9.02 µM) | > 64 | ≤ 0.06 | MIC (Escherichia coli EC14): > 64 µg/mL; MIC [19]: > 64 µg/mL; MIC (Entercoccus faecium 2041): 1 µg/mL (≈ 0.563 µM); mean geometric MIC, Vancomycin Resistant Strains [20]: > 128 µg/mL
CC(C)CC(C(=O)NC1C(=O)NC(CC(N)=O)C(=O)NC2C(=O)NC3C(=O)NC(C(=O)NC(C(=O)O)c4cc(O)cc(O)c4-c4cc3ccc4O)C(OC3CC(C)(N)C(O)C(C)O3)c3ccc(c(Cl)c3)Oc3cc2cc(c3OC2OC(CO)C(O)C(O)C2OC2CC(C)(NCc3ccc(Oc4ccc([N+](=O)[O-])cc4)cc3)C(O)C(C)O2)Oc2ccc(cc2Cl)C1O)N(C)Cc1ccc(Oc2ccc([N+](=O)[O-])cc2)cc1 (stereo not drawn) [Compound 267] | 0.25 (≈ 0.122 µM) | 0.5 (≈ 0.244 µM) | 2 (≈ 0.977 µM) | ≤ 0.06 | 0.125 (≈ 0.0611 µM) | 1 (≈ 0.489 µM) | 0.5 (≈ 0.244 µM) | 0.5 (≈ 0.244 µM) | 1 (≈ 0.489 µM) | ≤ 0.06 | 1 (≈ 0.489 µM) | 1 (≈ 0.489 µM) | 1 (≈ 0.489 µM) | 0.22 | 0.25 (≈ 0.122 µM) | > 64 | 4 (≈ 1.95 µM) | 4 (≈ 1.95 µM) | 16 (≈ 7.82 µM) | ≤ 0.06 | MIC (Escherichia coli EC14): > 64 µg/mL; MIC [19]: 4 µg/mL (≈ 1.95 µM); MIC (Entercoccus faecium 2041): 0.25 µg/mL (≈ 0.122 µM); mean geometric MIC, Vancomycin Resistant Strains [20]: 2.8 µg/mL
